Measured values: patent US12679832B2, “Compounds and their uses as CD38 inhibitors” (Nanjing Immunophage Biotech Co., Ltd., priority 2021, dated 2026)

Target: T1, hCD38 Enzyme (Homo sapiens, UniProt P28907)
T1 construct: purchased Sino Biological Inc 10818-H08H
T1 sequence (P28907 43-300 limits assumed): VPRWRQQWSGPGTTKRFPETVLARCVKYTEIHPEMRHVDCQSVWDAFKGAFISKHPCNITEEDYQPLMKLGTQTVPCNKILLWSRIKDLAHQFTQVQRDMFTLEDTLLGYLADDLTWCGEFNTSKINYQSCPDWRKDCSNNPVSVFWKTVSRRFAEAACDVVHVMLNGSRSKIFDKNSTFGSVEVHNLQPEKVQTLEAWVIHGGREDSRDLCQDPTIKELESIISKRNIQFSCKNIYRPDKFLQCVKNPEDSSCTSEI
Experiment: CD38 hydrolase enzymatic assay
Assay type: biochemical
Settings: rhCD38, ε-NAD substrate, 25° C., point reading time 20 mins; read-out: hCD38 Enzyme inhibition IC50

IC50 | Structure (SMILES)
3 nM | N#Cc1ccc(NC(=O)c2cc(C(F)(F)F)nc(-n3ccnc3)n2)cc1 [compound 165, N-(4-cyanophenyl)-2-(1H-imidazol-1-yl)-6-(trifluoromethyl) pyrimidine-4-carboxamide]
132 nM | Cc1ccccc1NC(=O)c1ccnc(-n2ccnc2)n1 [compound 83, 2-(1H-imidazol-1-yl)-N-(o-tolyl)pyrimidine-4-carboxamide]
149 nM | O=C(NC1CCCCC1)c1cc(N2CCCCC2)cc(-n2ccnc2)n1 [compound 130, N-cyclohexyl-6-(1H-imidazol-1-yl)-4-(piperidin-1-yl)picolinamide]
30 nM | O=C(O)COc1ncc(NC(=O)c2cc(C(F)(F)F)nc(-n3ccnc3)n2)cn1 [compound 194, 2-((5-(2-(1H-imidazol-1-yl)-6-(trifluoromethyl)pyrimidine-4-carboxamido)pyrimidin-2-yl)oxy) acetic acid]
> 10000 nM | CO[C@H]1CC[C@H](NC(=O)c2ccnc(-n3cnc(C(F)(F)F)c3)n2)CC1 [compound 153, N-((1r,4r)-4-methoxycyclohexyl)-2-(4-(trifluoromethyl)-1H-imidazol-1-yl) pyrimidine-4-carboxamide]
> 10000 nM | O=C(Nc1cccc(F)c1)c1ccnc(-n2cccn2)n1 [compound 102, N-(3-fluorophenyl)-2-(1H-pyrazol-1-yl)pyrimidine-4-carboxamide]

The remaining lines, values behind:

Structure (SMILES) | IC50
CO[C@H]1CC[C@H](NC(=O)c2cc(-c3cncs3)cc3cc[nH]c23)CC1 [compound 29, N-((1r,4r)-4-methoxycyclohexyl)-5-(thiazol-5-yl)-1H-indole-7-carboxamide] | 25 nM
CO[C@H]1CC[C@H](NC(=O)c2cc(-n3ccnc3)nnc2N)CC1 [compound 10, 3-amino-6-(1H-imidazol-1-yl)-N-((1r,4r)-4-methoxycyclohexyl)pyridazine-4-carboxamide] | 725 nM
CO[C@H]1CC[C@H](NC(=O)c2cc(-n3ccnc3)ncc2N)CC1 [compound 69, 5-amino-2-(1H-imidazol-1-yl)-N-((1r,4r)-4-methoxycyclohexyl) isonicotinamide] | 111 nM
CO[C@H]1CC[C@H](NC(=O)c2cc(-n3ccnc3)cc(C)n2)CC1 [compound 50, 4-(1H-imidazol-1-yl)-N-((1r,4r)-4-methoxycyclohexyl)-6-methylpicolinamide] | > 10000 nM
CO[C@H]1CC[C@H](NC(=O)c2cc(-n3ccnc3)cc(=O)[nH]2)CC1 [compound 3, 4-(1H-imidazol-1-yl)-N-((1r,4r)-4-methoxycyclohexyl)-6-oxo-1.6-dihydropyridine-2-carboxamide] | > 10000 nM
